Laboratory results taken from patent publication US6653320B2, “Imidazopyridine derivatives” (Yamanouchi Pharmaceutical Co. Ltd., priority 2000, dated 2003).

Experiments:
bovine p110α = biological target: T1, bovine p110α (Bos taurus, UniProt P32871); assay: Inhibition of PI3K (p110α subtype); format: biochemical; conditions: compared with known PI3K inhibitor LY294002
T1 construct: made in house
Description: The resulting mixture was stirred and then centrifuged. After the organic layer was extracted twice with 150 μl of MeOH/1M HCl (1:1). The radioactivity was measured using Cerenkov light.

HCT116 cells = format: cell-based; conditions: HCT116 colon cancer cells, incubation over 72 hours, Alamar Blue, result in words
Description: HCT116 cells from a colon cancer cell line were cultured in McCoy's 5A medium (GIBCO) supplemented with 10% fetal bovine serum. HCT116 cells were inoculated on a 96 well plate (5000 cells/well) followed by overnight incubation. The test compound diluted with the medium was added to the medium in a final concentration of 0.1 to 30 μM (final DMSO concentration, 1%). After incubation for over 72 hours, Alamar Blue reagent was added to the medium. Two hours after the addition, a ratio of fluorescent intensity at an excitation wavelength of 530 nm to that at an emission wavelength of 590 nm was measured to determine the IC50.

A375 cells = assay: Melanoma cell growth inhibition; format: cell-based; conditions: Homo sapiens, A-375, incubation over 46 hours, Alamar Blue
Description: A375 cells from a melanoma cell line were cultured in DMEM medium (GIBCO) supplemented with 10% fetal bovine serum. A375 cells at 10,000 cells/100 μl were added to a 96 well plate which contained 1 μl/well of the test compounds (final concentration of 0.001˜30 μM). After incubation for over 46 hours, Alamar Blue reagent was added to the medium (10 μl/well). Two hours after the addition, a ratio of fluorescent intensity at an excitation wavelength of 530 nm to that at an emission wavelength of 590 nm was measured to determine the IC50 of the test compounds in the same manner as in the above examples.

T1 sequence (P32871 whole entry): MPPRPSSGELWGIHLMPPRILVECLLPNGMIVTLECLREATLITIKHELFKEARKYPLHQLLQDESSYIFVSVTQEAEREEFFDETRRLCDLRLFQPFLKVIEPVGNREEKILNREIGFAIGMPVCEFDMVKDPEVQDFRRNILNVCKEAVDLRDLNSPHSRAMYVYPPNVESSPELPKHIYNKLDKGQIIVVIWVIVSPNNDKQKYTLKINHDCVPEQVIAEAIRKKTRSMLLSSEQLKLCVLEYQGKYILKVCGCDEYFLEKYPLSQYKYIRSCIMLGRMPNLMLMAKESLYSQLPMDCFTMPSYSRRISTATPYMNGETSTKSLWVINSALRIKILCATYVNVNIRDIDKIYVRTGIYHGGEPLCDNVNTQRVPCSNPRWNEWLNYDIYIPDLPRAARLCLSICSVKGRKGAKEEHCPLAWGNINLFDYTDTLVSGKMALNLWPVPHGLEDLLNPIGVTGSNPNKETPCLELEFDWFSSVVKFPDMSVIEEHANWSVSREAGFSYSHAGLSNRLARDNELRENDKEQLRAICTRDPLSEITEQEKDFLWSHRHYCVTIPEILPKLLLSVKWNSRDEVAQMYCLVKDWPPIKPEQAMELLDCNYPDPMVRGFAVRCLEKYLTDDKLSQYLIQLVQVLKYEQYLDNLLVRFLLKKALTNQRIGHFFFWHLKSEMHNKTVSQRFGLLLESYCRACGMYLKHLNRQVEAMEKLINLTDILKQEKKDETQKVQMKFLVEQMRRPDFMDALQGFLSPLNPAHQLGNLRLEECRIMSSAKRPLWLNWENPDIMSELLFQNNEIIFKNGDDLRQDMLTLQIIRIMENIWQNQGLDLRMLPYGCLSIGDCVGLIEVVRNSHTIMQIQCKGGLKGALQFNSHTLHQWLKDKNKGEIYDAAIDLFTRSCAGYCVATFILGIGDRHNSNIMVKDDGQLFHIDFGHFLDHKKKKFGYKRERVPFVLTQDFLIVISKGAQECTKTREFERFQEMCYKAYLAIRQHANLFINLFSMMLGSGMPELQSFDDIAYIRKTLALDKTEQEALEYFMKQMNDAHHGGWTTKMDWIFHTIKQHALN

| IC50 (A375 cells) [nM] | SMILES | PI3K inhibition, strength relative to LY294002 (bovine p110α) | cancer cell growth inhibition activity (HCT116 cells) |
| --- | --- | --- | --- |
| – | Cc1ccc([N+](=O)[O-])cc1S(=O)(=O)n1ccc(-c2c(C)nc3ccc(Br)cn23)n1 [Compound 6, 3-(6-Bromo-2-methylimidazo[1,2-a]pyridin-3-yl)-1H-pyrazol-1-yl 2-methyl-5-nitrophenyl sulfone] | more than 10 times | good cancer cell growth inhibition activity |
| < 1000 | Cc1ccc2ncc(C=NN(C)S(=O)(=O)c3cc([N+](=O)[O-])ccc3C)n2c1 [Compound 99, 1′,2-dimethyl-2′-[(6-methylimidazo[1,2-a]pyridin-3-yl)methylidene]-5-nitrobenzenesulfonohydrazide] | – | – |
